Laboratory results reported in PMC2673211, “Nitric oxide activates ATP-sensitive potassium channels in mammalian sensory neurons: action by direct S-nitrosylation” (Molecular Pain, 2009).

How the values were obtained:
[1] = target: T1, wild-type SUR1/Kir6.2 channels (Rattus norvegicus, UniProt P70673+Q09429); test: Inside-out patch recording of recombinant wild-type channels expressed in COS7 cells; format: biochemical; settings: SNAP 1 mM in the presence of 1 mM [ATP]i; n = 7
T1 construct: A full-length Kir cDNA and a full-length SUR cDNA were subcloned into the mammalian expression vector; expressed in transfected cells; host or cells: COS7 cells (KATP channel-deficient), pcDNA3.1(-) vectors, GFP cDNA co-transfected as a separate reporter
T1 sequence (Q09429 whole entry): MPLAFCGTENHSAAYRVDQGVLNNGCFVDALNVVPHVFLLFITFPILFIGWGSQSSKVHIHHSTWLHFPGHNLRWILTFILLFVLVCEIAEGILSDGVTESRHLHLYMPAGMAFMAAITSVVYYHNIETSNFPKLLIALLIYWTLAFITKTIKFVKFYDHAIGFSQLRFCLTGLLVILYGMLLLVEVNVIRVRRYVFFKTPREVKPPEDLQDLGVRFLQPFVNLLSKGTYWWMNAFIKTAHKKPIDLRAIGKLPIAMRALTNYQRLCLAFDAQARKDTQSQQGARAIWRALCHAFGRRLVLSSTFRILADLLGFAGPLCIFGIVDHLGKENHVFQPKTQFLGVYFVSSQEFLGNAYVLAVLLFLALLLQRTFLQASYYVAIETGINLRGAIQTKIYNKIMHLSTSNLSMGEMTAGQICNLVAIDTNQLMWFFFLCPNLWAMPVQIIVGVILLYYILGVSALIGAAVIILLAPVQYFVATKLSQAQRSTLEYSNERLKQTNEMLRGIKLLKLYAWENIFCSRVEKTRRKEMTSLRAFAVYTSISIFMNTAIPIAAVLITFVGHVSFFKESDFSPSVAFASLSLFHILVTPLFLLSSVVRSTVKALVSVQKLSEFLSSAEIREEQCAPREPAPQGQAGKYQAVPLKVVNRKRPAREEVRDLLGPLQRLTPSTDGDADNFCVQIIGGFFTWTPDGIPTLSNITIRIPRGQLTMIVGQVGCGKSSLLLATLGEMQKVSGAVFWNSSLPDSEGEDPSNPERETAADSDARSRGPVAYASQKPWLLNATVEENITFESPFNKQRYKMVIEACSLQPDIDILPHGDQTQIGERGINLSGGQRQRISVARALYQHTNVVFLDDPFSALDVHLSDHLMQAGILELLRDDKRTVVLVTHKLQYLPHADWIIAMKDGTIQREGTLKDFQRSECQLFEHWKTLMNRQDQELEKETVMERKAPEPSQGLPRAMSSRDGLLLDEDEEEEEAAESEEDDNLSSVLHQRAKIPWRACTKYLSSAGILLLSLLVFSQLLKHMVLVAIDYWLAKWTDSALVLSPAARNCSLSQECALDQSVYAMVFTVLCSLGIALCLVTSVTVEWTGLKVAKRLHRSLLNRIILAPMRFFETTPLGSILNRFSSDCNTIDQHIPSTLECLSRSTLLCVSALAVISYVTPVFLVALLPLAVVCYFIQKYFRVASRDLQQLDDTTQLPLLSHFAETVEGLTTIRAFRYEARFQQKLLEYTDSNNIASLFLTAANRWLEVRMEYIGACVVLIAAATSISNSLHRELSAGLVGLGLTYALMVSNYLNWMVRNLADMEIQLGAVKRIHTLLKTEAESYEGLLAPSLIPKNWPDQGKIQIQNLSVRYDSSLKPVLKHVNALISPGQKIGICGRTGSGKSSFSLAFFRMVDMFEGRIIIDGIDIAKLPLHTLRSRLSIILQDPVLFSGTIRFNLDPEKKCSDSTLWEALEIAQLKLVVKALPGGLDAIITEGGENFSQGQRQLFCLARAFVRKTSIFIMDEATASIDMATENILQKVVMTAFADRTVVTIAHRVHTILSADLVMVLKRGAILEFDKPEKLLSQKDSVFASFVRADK
T1 sequence (P70673 whole entry): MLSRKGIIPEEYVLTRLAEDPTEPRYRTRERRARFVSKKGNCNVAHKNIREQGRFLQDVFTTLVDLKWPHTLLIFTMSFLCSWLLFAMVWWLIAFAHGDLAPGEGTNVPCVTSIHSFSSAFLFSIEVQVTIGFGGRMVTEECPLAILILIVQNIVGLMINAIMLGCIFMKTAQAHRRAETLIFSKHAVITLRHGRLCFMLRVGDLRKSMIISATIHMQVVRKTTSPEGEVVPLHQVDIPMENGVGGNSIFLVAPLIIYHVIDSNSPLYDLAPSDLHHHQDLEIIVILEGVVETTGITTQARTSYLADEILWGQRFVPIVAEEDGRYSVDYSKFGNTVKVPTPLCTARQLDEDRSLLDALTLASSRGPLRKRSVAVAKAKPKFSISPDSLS
Method: KATP channel-deficient COS7 cells were plated at a density of 3 × 10^5/dish (35 mm in diameter) and cultured in Dulbecco's modified Eagle's medium supplemented with 10% fetal calf serum. Rat Kir6.2 (GenBank X97041) and rat SUR1 (GenBank X97279) cDNAs were used for expression study. A truncated form of Kir6.2 lacking the last 36 amino acids at the C-terminus was obtained by polymerase chain reaction amplification. Polymerase chain reaction products were cloned into the pCR3.1 vector by using the TA cloning system (Invitrogen Corp., Carlsbad, CA, USA) and then cloned into the pcDNA3.1 (-) vector (Invitrogen Corp.) for mammalian expression. Point mutation of cysteine at position 717 (C717), C806, C1378, C1446, and C1491 within SUR1 to serine (C717S, C806S, C1378S, C1446S, and C1491S) was performed by using the Site-Directed Mutagenesis system (Invitrogen Corp.). All cDNA products were sequenced by using the BigDye terminator cycle sequencing kit and an ABI PRISM 377 DNA sequencer (Applied Biosystems, Foster City, CA) to confirm the sequence. A full-length Kir cDNA and a full-length SUR cDNA were subcloned into the mammalian expression vector pcDNA3.1 (-). For electrophysiological recordings, either wild-type or mutated pcDNA3.1 (-) Kir6.2 alone (1 μg), or pcDNA3.1 (-) Kir6.2 (1 μg) plus pcDNA3.1 (-) SUR1 (3 μg) were transfected into COS7 cells with green fluorescent protein cDNA as a reporter gene by using lipofectamine and Opti-MEN 1 reagents (Life Technologies Inc., Rockville, MD) according to the manufacturer's instructions. After transfection, cells were cultured at 37°C with 95% air and 5% CO2 for 48–72 h before being subjected to electrophysiological recordings.
We recorded current passing through single channels in inside-out or cell-attached patch configurations. In cell-attached patches, both bath and pipette (extracellular) solutions were composed of the following: 140 mM KCl, 10 mM HEPES, 5.5 mM dextrose, and 1 mM EGTA. In inside-out patches, the bath (intracellular) solution contained 140 mM KCl, 1.2 mM MgCl2, 10 mM HEPES, 1.5 mM EGTA and 5.5 mM dextrose. The pipette (extracellular) solution was of the same composition as that used in cell-attached recordings. The pH of all solutions was adjusted to 7.4 with KOH. Osmolality was adjusted approximately to 300 mOsm/l by adding sucrose if necessary. We pulled patch micropipettes from borosilicate glass capillaries using a Flaming/Brown micropipette puller, model P-97 (Sutter, San Rafael, CA) and flame polished them with a microforge polisher (Narishige, Tokyo, Japan) prior to use. Their resistance ranged between 3 and 6 MΩ when filled with the internal solution, and placed into the recording solutions.
(§1) We recorded single channel currents at room temperature (20–25°C) using an Axon CNS Multiclamp 700B amplifier, digitized them using an analog-to-digital converter (Axon CNS DigiData 1440A; Axon Instruments, Foster, CA), and stored them into a PC. Sampling frequency of single-channel data was 5 KHz with a low-pass filter (1 KHz). We used pClamp version 10.2 software (Axon Instruments) for data acquisition and analysis. […] Channel open probability (Po) was determined from the ratios of the area under the peaks in the amplitude histograms fitted by a Gaussian distribution. We calculated channel activity as NPo (where N is the number of observed channels in the patch) from data samples of either 30 s (in inside-out recordings), or 60 s (in cell-attached recordings), in the steady state. […]

Kir6.2ΔC36 channels = target: T2, Kir6.2ΔC36 channels (Rattus norvegicus, UniProt P70673); test: Inside-out patch recording of truncated Kir6.2 channels expressed in COS7 cells; format: biochemical; settings: SNAP 1 mM in the presence of 1 mM [ATP]i; n = 6
T2 construct: A truncated form of Kir6.2 lacking the last 36 amino acids at the C-terminus; expressed in transfected cells; host or cells: COS7 cells, pcDNA3.1(-) Kir6.2 alone, GFP cDNA co-transfected as a separate reporter
T2 sequence (P70673 1-354 limits assumed): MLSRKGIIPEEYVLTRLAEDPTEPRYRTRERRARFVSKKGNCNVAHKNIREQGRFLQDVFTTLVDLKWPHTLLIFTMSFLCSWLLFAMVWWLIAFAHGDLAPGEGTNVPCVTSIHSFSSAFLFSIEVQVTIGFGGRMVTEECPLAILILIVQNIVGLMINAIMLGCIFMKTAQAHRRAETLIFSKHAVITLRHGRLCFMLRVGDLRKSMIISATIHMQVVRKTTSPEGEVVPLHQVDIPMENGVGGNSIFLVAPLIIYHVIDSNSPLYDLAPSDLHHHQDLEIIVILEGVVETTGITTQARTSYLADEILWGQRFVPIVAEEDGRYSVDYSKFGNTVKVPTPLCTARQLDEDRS
Method: KATP channel-deficient COS7 cells were plated at a density of 3 × 10^5/dish (35 mm in diameter) and cultured in Dulbecco's modified Eagle's medium supplemented with 10% fetal calf serum. Rat Kir6.2 (GenBank X97041) and rat SUR1 (GenBank X97279) cDNAs were used for expression study. A truncated form of Kir6.2 lacking the last 36 amino acids at the C-terminus was obtained by polymerase chain reaction amplification. Polymerase chain reaction products were cloned into the pCR3.1 vector by using the TA cloning system (Invitrogen Corp., Carlsbad, CA, USA) and then cloned into the pcDNA3.1 (-) vector (Invitrogen Corp.) for mammalian expression. […]
We recorded current passing through single channels in inside-out or cell-attached patch configurations. […]
as §1, with “PC.” for “PC. Sampling frequency of single-channel data was 5 KHz with a low-pass filter (1 KHz). We used pClamp version 10.2 software (Axon Instruments) for data acquisition and analysis.”

effect on recombinant channel activity [1]: significantly activated
effect on Kir6.2ΔC36 currents (Kir6.2ΔC36 channels): fails to activate
Substance: S-nitroso-N-acetylpenicillamine [SNAP]
